# Source: patent US11331328B2, “Compositions and methods for inhibiting antiapoptotic Bcl-2 proteins as anti-aging agents” (priority 2014, dated 2022)
# Where two headings read alike, the source gives them in different places. Peptide text beside a SMILES is read from it. * marks the point of attachment. Cbz = O=C(OCc1ccccc1)*
# How the values were obtained:
# [1] = tested on: IR-induced senescent WI-38 cells (SC); test: Cell viability (PI flow cytometry), LD50 in IR-induced senescent WI-38 cells; type: cell-based, human; details: for LD50 Ratio (NC/SC): non-senescent vs IR-induced senescent WI-38 cells
# Description: (§1) Mouse embryonic fibroblasts (MEF) were isolated from mouse embryos as described^1. All cells were cultured in a complete medium (CM) (Dulbecco's Modified Eagle Medium supplemented with 10% fetal bovine serum [FBS], 100 U/ml penicillin, and 100 μg/ml streptomycin [all from Atlanta Biologicals, Norcross, Ga., and USA]) in a humidified incubator at 37° C. and 5% CO2. Low passages of WI-38 cells (<25), IMR-90 (<25), REC cells (<25) and MEF (<3) were used as non-senescent controls or for induction of senescence to avoid replicative senescence. […] To induce senescence by expression of oncogenic Ras (Ras^V12), WI-38 cells were infected with the retroviruses pBabe-H-Ras or pBabe-puro (control) (Addgene, Cambridge, Mass., UAS)^2, 3. […] Senescent cells were maintained in culture for a few days, changing the culture medium every 3 days until use. For in vitro cell culture experiments, we usually repeated the experiments for at least three times to ensure the reproducibility of the data. In addition, the repeats of the experiments for three times will allow us to obtain 3 independent observations for statistical analysis.
# (§2) Flow cytometry: Non-senescent and senescent cells were seeded into wells of 24- or 48-well at about 70% of confluence. […] Both quiescent non-senescent cells and permanently growth arrested senescent cells were treated with vehicle (0.1% DMSO or PBS) or increasing concentrations of the compounds listed in Table 1 for various durations. […] After incubated with propidium iodide (PI 100 ng/ml) in PBS at room temperature for 1 min, cells were centrifuged at 1200 rpm for 6 min and then resuspended in PBS with 2% of FBS for analysis by a BD LSR II flow cytometer (BD Biosciences, San Jose, Calif., USA). Viable cells (PI^− cells) were numerated by flow cytometry at a constant flow rate and calculated as a percentage of control cells treated with vehicle using the formula: percentage of control=(Ndrug/NC)×100, where Ndrug and NC represent the absolute number of PI^− viable cells of drug-treated and vehicle-treated cells, respectively.
# (§3) MTT (3-[4,5-dimethylthiazol-2-yl]-2,5 diphenyl tetrazolium bromide) assay: Cells were harvested, washed and resuspended in CM and added to wells of 24- or 48-well plates as described above. […] After 4 h at 37° C., the formazan was solubilized by lysing the cells with 300 μl of DMSO. Absorbance of formazan was measured at 595 nm using a Microplate Reader (BioTek, Winooski, Vt., USA). Cell viability was calculated in the method as previously described^4.
# (§4) Trypan blue exclusion assay: Cells were harvested, washed and resuspended in CM and added to wells of a 6-well plate as described above. […] Living cells stained negative for trypan blue and were counted under light microscopy.
# (§5) Briefly, Probit (set as y) was determined by looking up their correspondence to the % responded in Finney's table. The log of the compound concentrations was used as x. By fitting a line of regression, we produce the formula y=ax+b.
# [2] = tested on: non-senescent WI-38 cells (NC); test: Cell viability (PI flow cytometry), LD50 in non-senescent WI-38 cells; type: cell-based, human
# Description: as §1, §2, §3, §4, §5
# [3] = Homo sapiens, WI-38 fibroblasts, IR-induced senescent, LD50 by Probit Analysis, read-out: LD50 (μM) for senescent cells (SC)
# [4] = Homo sapiens, WI-38 fibroblasts, non-senescent, LD50 by Probit Analysis, read-out: LD50 (μM) for non-senescent cells (NC)
# [5] = WI-38 fibroblasts, IR-induced senescent, LD50 by Probit Analysis, read-out: LD50 (μM) for senescent cells (SC)
# [6] = WI-38 fibroblasts, non-senescent, LD50 by Probit Analysis, read-out: LD50 (μM) for non-senescent cells (NC)
# [7] = Homo sapiens, WI-38, read-out: LD50 (μM) for senescent cells (SC)
# [8] = Homo sapiens, WI-38, read-out: LD50 (μM) for non-senescent cells (NC)
Compound,"IC50 [1, 3]",LD50 Ratio (NC/SC) [1],"CC50 [2, 4]","IC50 [1, 5]","CC50 [2, 6]","selective killing of SCs (viable WI-38 cells, NC vs IR-SC) ([1]; 5 μM ABT199, 0.5 μM WEHI539, or both, 72 h)","IC50 [1, 7]","CC50 [2, 8]"
O=CC[C@@H](O)[C@H](O)[C@H](O)CO [2-Deoxy-D-glucose],8890 µM,0.5,4800 µM,–,–,–,–,–
O=C(O)C(=O)CBr [3-bromopyruvate],–,0.8,–,370.00 µM,280.00 µM,–,–,–
CC1(C)CCC(CN2CCN(c3ccc(C(=O)NS(=O)(=O)c4ccc(NCC5CCOCC5)c([N+](=O)[O-])c4)c(Oc4cnc5[nH]ccc5c4)c3)CC2)=C(c2ccc(Cl)cc2)C1 [ABT199],> 10 µM,–,> 10 µM,–,–,did not selectively kill SCs,–,–
CC(=O)OC[C@H]1O[C@@H]([S-])[C@H](OC(C)=O)[C@@H](OC(C)=O)[C@@H]1OC(C)=O.CCP(CC)CC.[Au+] [Auranofin],–,1.0,–,5.34 µM,5.13 µM,–,–,–
Cc1ccc2nc(NCCN)c3ncc(C)n3c2c1 [BMS345541],10.8 µM,0.6,6.87 µM,–,–,–,–,–
CC(C)C[C@H](NC(=O)[C@H](Cc1ccccc1)NC(=O)c1cnccn1)B(O)O [Bortzomib],–,0.7,–,0.024 µM,0.016 µM,–,–,–
CCCCS(=N)(=O)CCC(N)C(=O)O (stereo not shown) [Buthionine sulfoximine],2390 µM,1.0,2340 µM,–,–,–,–,–
O=C(O)CCCCC(CCSCc1ccccc1)SCc1ccccc1 (stereo not shown) [CPI-613],205 µM,1.1,223 µM,–,–,–,–,–
CCCCCCCCCC[P+](c1ccccc1)(c1ccccc1)c1ccccc1 [Decyl-triphenylphosphonium],–,1.4,–,–,–,–,0.98 µM,1.41 µM
C[C@]12CC[C@H](O)CC1=CC[C@@H]1[C@@H]2CC[C@]2(C)C(=O)CC[C@@H]12 [Dehydroepiandrosterone],510 µM,0.6,296 µM,–,–,–,–,–
CNCCCN1c2ccccc2CCc2ccccc21 [Despramine],–,1.0,–,51.13 µM,50.03 µM,–,–,–
CS[C@H]1SC[C@H]2C(=O)N(C)[C@@H](C(C)C)C(=O)OC[C@@H](NC(=O)c3cnc4ccccc4n3)C(=O)N[C@@H](C)C(=O)N(C)[C@@H]1C(=O)N(C)[C@@H](C(C)C)C(=O)OC[C@@H](NC(=O)c1cnc3ccccc3n1)C(=O)N[C@@H](C)C(=O)N2C [Echinomycin],–,0.2,–,–,–,–,2.86 µM,0.42 µM
OO [Hydrogen peroxide],231 µM,0.58,135 µM,–,–,–,–,–
C=CCNc1c(O)cc2c(O)c1C[C@@H](C)C[C@H](OC)[C@H](O)[C@@H](C)/C=C(\C)[C@H](OC(N)=O)[C@@H](OC)/C=C\C=C(/C)C(=O)N2 [IPI-504],–,0.2,–,–,–,–,0.93 µM,0.14 µM
O=c1cc(-c2cccc3c2Sc2ccccc2S3)oc(N2CCOCC2)c1 [KU55933],30.7 µM,0.2,5.1 µM,–,–,–,–,–
CC(C)C[C@@H](C=O)NC(=O)[C@H](CC(C)C)NC(=O)[C@H](CC(C)C)NC(=O)OCc1ccccc1 [MG132] (Cbz-Leu-Leu-Leu-aldehyde),–,0.1,–,–,–,–,1.92 µM,0.24 µM

Compound,"IC50 [1, 3]",LD50 Ratio (NC/SC) [1],"CC50 [2, 4]","IC50 [1, 5]","CC50 [2, 6]","selective killing of SCs (viable WI-38 cells, NC vs IR-SC) ([1]; 5 μM ABT199, 0.5 μM WEHI539, or both, 72 h)","IC50 [1, 7]","CC50 [2, 8]"
Cc1csc(=NC2CCCCC2)n1/N=C/c1ccc(O)c(O)c1O [MIM1],–,1.0,–,>50.00 µM,>50.00 µM,–,–,–
O=c1cc(N2CCOCC2)oc2c1ccc1ccccc12 [NU7026],–,0.7,–,64.03 µM,47.02 µM,–,–,–
COc1ccc(C2=N[C@@H](c3ccc(Cl)cc3)[C@@H](c3ccc(Cl)cc3)N2C(=O)N2CCNC(=O)C2)c(OC(C)C)c1 [Nutlin3],–,0.1,–,82.16 µM,5.62 µM,–,–,–
"S=C=NCCc1ccccc1 [Phenethyl isothiocyanate (PEITC), Phenethyl isothiocyanate]",> 10 µM,<1.0,< 10 µM,–,–,–,–,–
CC1=CC(=O)c2c(O)cccc2C1=O [Plumbagin],8.7 µM,1.5,12.6 µM,–,–,–,–,–
CCCCCCCCCCCCC/C=C/[C@@H](O)[C@@H](N)CO[C@@H]1O[C@H](CO)[C@H](O)[C@H](O)[C@H]1O [Psychosine],–,0.9,–,52.25 µM,46.32 µM,–,–,–
CO[C@H]1C[C@@H]2CC[C@@H](C)[C@@](O)(O2)C(=O)C(=O)N2CCCC[C@H]2C(=O)O[C@H]([C@H](C)C[C@@H]2CC[C@@H](O)[C@H](OC)C2)CC(=O)[C@H](C)/C=C(\C)[C@@H](O)[C@@H](OC)C(=O)[C@H](C)C[C@H](C)/C=C/C=C/C=C/1C [Rapamycin],–,1.0,–,–,–,–,> 0.04 µM,> 0.04 µM
Oc1ccc(-c2nc(-c3ccncc3)c(-c3ccc(F)cc3)[nH]2)cc1 [SB202190],> 800 µM,–,> 800 µM,–,–,–,–,–
NCCCNCCCCNCCCN [Spermine],> 40 µM,–,> 40 µM,–,–,–,–,–
CC(C)(C)c1ccc(C(O)CCCN2CCC(C(O)(c3ccccc3)c3ccccc3)CC2)cc1 (stereo not shown) [Terfenadine],6.87 µM,0.9,6.13 µM,–,–,–,–,–
"CC(/C=C/C(=O)NO)=C\[C@@H](C)C(=O)c1ccc(N(C)C)cc1 [Trichostatin A(TSA), Trichostatin A]",–,1.87,–,0.39 µM,0.72 µM,–,–,–
"O=C(CCCCCCC(=O)Nc1ccccc1)NO [Vorinostat(SAHA), Vorinostat]",2.21 µM,0.38,0.85 µM,–,–,–,–,–
COc1c(O)cc(O)c2c(=O)cc(-c3ccccc3)oc12 [Wogonin],–,1.0,–,–,–,–,> 200 µM,> 200 µM
COCCn1c2c([n+](Cc3cnccn3)c1C)C(=O)c1ccccc1C2=O [YM-155],50 µM,1.6,78.4 µM,–,–,–,–,–
Arsenic trioxide,–,0.9,–,18.26 µM,15.65 µM,–,–,–
Balifomycin A1,–,1.3,–,22.11 µM,29.71 µM,–,–,–
